Measured values as given in US20090012103A1, “SUBSTITUTED HETEROCYCLIC COMPOUNDS” (priority 2007, published 2009).

Key:
[1] = molecular target: wild-type human cardiac sodium channel, hNav1.5 (Homo sapiens, UniProt Q14524); experiment: Late INa screening assay (late sodium current, PatchXpress whole cell patch clamp); type: cell-based; settings: for inhibition at 10 µM: compound at 10 μM, read-out: Late INa % blk; for effect on late sodium current: result in words
[2] = molecular target: hERG potassium channel (Homo sapiens, UniProt Q12809); experiment: hERG screening assay (PatchXpress patch clamp, CHO cell line)
hERG potassium channel, sequence (Q12809 whole entry): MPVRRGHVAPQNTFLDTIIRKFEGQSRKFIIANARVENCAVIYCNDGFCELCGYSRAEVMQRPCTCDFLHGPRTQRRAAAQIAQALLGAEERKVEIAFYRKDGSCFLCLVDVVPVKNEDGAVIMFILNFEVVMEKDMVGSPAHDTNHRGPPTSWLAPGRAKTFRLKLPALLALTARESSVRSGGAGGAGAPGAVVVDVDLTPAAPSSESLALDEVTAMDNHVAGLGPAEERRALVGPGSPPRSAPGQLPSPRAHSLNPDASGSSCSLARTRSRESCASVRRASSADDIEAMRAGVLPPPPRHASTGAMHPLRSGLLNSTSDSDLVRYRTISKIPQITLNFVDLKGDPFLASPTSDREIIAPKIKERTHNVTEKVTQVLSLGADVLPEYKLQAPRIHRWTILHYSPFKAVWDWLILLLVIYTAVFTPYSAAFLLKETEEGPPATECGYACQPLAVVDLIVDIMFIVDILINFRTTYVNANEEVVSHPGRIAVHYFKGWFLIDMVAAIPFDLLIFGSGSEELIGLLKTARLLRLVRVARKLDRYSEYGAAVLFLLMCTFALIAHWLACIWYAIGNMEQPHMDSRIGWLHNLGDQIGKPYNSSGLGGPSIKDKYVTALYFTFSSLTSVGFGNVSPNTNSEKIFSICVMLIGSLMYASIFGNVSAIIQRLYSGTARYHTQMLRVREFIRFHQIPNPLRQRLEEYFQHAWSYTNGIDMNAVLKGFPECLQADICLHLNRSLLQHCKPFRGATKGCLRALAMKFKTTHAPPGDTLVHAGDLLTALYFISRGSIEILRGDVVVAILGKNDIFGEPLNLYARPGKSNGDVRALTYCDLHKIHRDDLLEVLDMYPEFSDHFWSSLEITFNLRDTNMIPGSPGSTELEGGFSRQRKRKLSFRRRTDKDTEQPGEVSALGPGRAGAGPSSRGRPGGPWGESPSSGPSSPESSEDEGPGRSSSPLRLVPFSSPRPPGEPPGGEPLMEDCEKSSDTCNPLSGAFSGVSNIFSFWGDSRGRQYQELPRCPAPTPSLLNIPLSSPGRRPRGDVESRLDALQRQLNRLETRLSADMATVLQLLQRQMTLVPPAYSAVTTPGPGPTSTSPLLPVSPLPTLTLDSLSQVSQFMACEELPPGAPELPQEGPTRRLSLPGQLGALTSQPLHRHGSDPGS
Experimental: Compounds were screened to test their activity in blocking the hERG potassium channel. The hERG channel is heterologously expressed in a CHO (Chinese Hamster Ovary) cell line. Cells are maintained with standard tissue culture procedures and stable channel expression is maintained with 500 μg/ml G418 in the culture medium. Cells are harvested for testing on the PatchXpress automated patch clamp with Accumax (Innovative Cell Technologies, San Diego, Calif.) to isolate single cells.
The following solutions are used for electrophysiological recordings. The external solution contains: 2 mM CaCl2; 2 mM MgCl2; 4 mM KCl; 150 mM NaCl; 10 mM Glucose; 10 mM HEPES (pH 7.4 with 1M NaOH, osmolarity).
hERG channels are activated when the voltage is stepped to +20 mV from the −80 mV holding potential (see FIG. 3). During a 5 second step at +20 mV, the channels activate and then largely inactivate, so the currents are relatively small. Upon returning to −50 mV from +20 mV, hERG currents transiently become much larger as inactivation is rapidly removed and then the channel closes. The first step to −50 mV for 300 ms is used as a baseline for measuring the peak amplitude during the step to −50 mV after channel activation. The peak current at −50 mV is measured both under control conditions and after addition of compound.
All compounds are prepared as 10 mM DMSO stocks in glass vials. Stock solutions are mixed by vigorous vortexing and sonication for about 2 minutes at room temperature. For testing, compounds are diluted in glass vials using an intermediate dilution step in pure DMSO and then further diluted to working concentrations in external solution. Dilutions are prepared no longer than 20 minutes before use.
After achieving the whole-cell configuration, cells are monitored for 90 seconds to assess stability and washed with external solution for 66 seconds. The voltage protocol described above is then applied to the cells every 12 seconds and throughout the whole procedure. Only cells with stable recording parameters and meeting specified health criteria are allowed to enter the compound addition procedure.
External solution containing 0.1% DMSO (vehicle) is applied to the cells first to establish the control peak current amplitude. After allowing the current to stabilize for 3 to 5 minutes, 1 μM and then 10 μM test compounds are applied. Each compound concentration is added 4 times and cells are kept in test solution until the effect of the compound reaches steady state or for a maximum of 12 minutes. […] Washout in the external solution compartment is performed until the recovery of the current reaches steady state. Data are analyzed using DataXpress, Clampfit (Molecular Devices, Inc., Sunnyvale) and Origin 7 (Originlab Corp.)

wild-type human cardiac sodium channel, hNav1.5, sequence (Q14524 whole entry): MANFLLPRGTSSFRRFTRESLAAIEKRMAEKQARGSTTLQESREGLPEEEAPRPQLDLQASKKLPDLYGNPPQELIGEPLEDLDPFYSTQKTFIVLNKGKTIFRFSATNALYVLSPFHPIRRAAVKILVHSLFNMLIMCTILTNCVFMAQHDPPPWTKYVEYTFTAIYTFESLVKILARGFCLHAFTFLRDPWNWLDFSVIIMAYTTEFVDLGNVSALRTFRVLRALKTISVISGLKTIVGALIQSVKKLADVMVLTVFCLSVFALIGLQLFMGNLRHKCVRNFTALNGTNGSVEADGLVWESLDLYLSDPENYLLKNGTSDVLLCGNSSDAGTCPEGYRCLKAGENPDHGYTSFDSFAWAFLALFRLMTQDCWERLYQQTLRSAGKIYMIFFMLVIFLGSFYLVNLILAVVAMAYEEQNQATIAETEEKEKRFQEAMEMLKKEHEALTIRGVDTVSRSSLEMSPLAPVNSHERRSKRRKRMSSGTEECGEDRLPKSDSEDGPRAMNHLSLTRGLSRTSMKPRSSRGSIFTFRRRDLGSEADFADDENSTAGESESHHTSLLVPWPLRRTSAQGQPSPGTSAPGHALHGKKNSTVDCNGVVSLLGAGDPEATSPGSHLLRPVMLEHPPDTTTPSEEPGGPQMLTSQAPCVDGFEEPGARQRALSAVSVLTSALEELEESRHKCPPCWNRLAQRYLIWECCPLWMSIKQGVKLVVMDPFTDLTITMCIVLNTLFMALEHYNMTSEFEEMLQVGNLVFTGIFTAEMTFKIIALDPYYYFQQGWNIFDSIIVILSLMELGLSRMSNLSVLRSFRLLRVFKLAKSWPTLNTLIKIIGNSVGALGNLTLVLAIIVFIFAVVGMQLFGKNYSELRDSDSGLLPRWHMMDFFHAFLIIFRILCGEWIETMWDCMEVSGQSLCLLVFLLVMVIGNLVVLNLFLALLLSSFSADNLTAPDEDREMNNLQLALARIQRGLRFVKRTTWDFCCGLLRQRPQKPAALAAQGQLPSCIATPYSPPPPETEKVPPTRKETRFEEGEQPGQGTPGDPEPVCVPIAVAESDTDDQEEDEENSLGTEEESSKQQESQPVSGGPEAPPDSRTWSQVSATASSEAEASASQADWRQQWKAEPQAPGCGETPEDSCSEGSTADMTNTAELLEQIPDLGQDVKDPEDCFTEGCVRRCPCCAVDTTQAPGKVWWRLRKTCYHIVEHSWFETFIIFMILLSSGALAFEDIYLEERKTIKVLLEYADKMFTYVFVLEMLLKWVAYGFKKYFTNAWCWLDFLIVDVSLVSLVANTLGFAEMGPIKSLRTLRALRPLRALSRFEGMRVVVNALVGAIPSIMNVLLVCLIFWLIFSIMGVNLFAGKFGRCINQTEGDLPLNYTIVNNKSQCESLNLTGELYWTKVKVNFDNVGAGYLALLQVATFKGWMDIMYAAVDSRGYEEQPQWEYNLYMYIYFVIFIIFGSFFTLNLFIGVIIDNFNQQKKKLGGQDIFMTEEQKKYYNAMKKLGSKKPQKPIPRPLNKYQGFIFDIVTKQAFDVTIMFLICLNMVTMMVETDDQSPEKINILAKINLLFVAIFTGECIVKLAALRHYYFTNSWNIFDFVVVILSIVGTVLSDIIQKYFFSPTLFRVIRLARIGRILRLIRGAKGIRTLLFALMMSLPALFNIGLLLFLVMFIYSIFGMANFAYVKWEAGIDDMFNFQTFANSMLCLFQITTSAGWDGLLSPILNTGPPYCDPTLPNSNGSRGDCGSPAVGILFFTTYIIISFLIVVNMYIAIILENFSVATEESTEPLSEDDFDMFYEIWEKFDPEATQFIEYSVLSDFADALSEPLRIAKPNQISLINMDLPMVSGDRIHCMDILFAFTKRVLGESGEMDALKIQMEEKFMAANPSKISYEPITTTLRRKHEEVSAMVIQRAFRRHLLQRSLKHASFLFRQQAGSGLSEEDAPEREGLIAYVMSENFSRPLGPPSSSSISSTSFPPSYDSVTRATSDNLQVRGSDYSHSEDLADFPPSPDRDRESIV

SMILES | inhibition at 10 µM [1] [%] | hERG Patch Clamp hERG % blk ([2]; 1 μM) [%] | hERG Patch Clamp hERG % blk ([2]; 10 μM) [%] | effect on late sodium current [1]
CC1=C(C(=O)O[C@@H](C)c2ccccc2)[C@@H](c2cccc3ccccc23)n2nnnc2N1 [PT-050, (R)-((S)-1-phenylethyl) 5-methyl-7-(naphthalen-1-yl)-4,7-dihydrotetrazolo[1,5-a]pyrimidine-6-carboxylate] | 94 | 10.0 | 53.5 | –
COc1ccc(COC(=O)C2=C(C)Nc3nnnn3C2c2cccc3ccccc23)cc1OC (stereo not drawn) [PT-061, 3,4-dimethoxybenzyl 5-methyl-7-(naphthalen-1-yl)-4,7-dihydrotetrazolo[1,5-a]pyrimidine-6-carboxylate] | 37.3 | 24.0 | 46.5 | –
CC1=C(C(=O)NCc2ccccc2)C(c2ccc3ccccc3c2)n2nnnc2N1 (stereo not drawn) [PT-068, N-benzyl-5-methyl-7-(naphthalen-2-yl)-4,7-dihydrotetrazolo[1,5-a]pyrimidine-6-carboxamide] | 14.3 | 14.0 | 22.5 | –
CCOC(=O)C1=C(C)Nc2[nH]nc(C)c2C1c1cccc2ccccc12 (stereo not drawn) [PT-074, ethyl 3,6-dimethyl-4-(naphthalen-1-yl)-4,7-dihydro-1H-pyrazolo[3,4-b]pyridine-5-carboxylate] | 27.7 | 14.0 | 43.0 | –
COC(=O)c1ccc(-c2n[nH]c3c2C(c2cccc4ccccc24)C2=C(COC2=O)N3)cc1 (stereo not drawn) [PT-085, methyl 4-(4-(naphthalen-1-yl)-5-oxo-4,5,7,8-tetrahydro-1H-furo[3,4-b]pyrazolo[4,3-e]pyridin-3-yl)benzoate] | 9.1 | 34.0 | 44.5 | –
CCOC(=O)C1=C(C)Nc2nccn2C1c1ccc2ccccc2c1 (stereo not drawn) [PT-086, ethyl 7-methyl-5-(naphthalen-2-yl)-5,8-dihydroimidazo[1,2-a]pyrimidine-6-carboxylate] | 38.8 | 13.5 | 57.5 | –
N#CC1=C(N)NC2=C(C(=O)CCC2)C1c1ccc(Br)cc1 (stereo not drawn) [PT-095, 2-amino-4-(4-bromophenyl)-5-oxo-1,4,5,6,7,8-hexahydroquinoline-3-carbonitrile] | 4.9 | 10.0 | 24.5 | –
N#CC1=C(N)OC2=C(C(=O)CC(c3ccccc3)C2)C1c1ccco1 (stereo not drawn) [PT-104, 2-amino-4-(furan-2-yl)-5-oxo-7-phenyl-5,6,7,8-tetrahydro-4H-chromene-3-carbonitrile] | 14.3 | 18.0 | 46.0 | –
CCOC(=O)C1=C(C)NC(C)=C(C(=O)OCC)C1c1cccs1 [PT-111, diethyl 2,6-dimethyl-4-(thiophen-2-yl)-1,4-dihydropyridine-3,5-dicarboxylate] | 69.2 | 11.5 | 48.5 | –
CCOC(=O)C1=C(C)NC(C)=C(C(=O)OCC)C1c1cc2ccccc2o1 [PT-122, diethyl 4-(benzofuran-2-yl)-2,6-dimethyl-1,4-dihydropyridine-3,5-dicarboxylate] | 80.3 | 15.5 | 55.0 | –
CCCC1=C(C(=O)OCC)C(c2ccc(C(=O)O)cc2)C2=C(CC(C)(C)CC2=O)N1 (stereo not drawn) [PT-133, 4-(3-(ethoxycarbonyl)-7,7-dimethyl-5-oxo-2-propyl-1,4,5,6,7,8-hexahydroquinolin-4-yl)benzoic acid] | -27.5 | 10.0 | 12.0 | –
CCOC(=O)C1=C(C)NC2=C(C(=O)CCC2)C1c1cccc2ncccc12 (stereo not drawn) [PT-140, ethyl 2-methyl-5-oxo-1,4,5,6,7,8-hexahydro-4,5′-biquinoline-3-carboxylate] | 6.3 | 13.5 | 34.5 | –
CCCC1=C(C(=O)OCC)C(c2ccsc2)C2=C(CC(c3ccccc3)CC2=O)N1 (stereo not drawn) [PT-149, ethyl 5-oxo-7-phenyl-2-propyl-4-(thiophen-3-yl)-1,4,5,6,7,8-hexahydroquinoline-3-carboxylate] | 71.5 | 24.3 | 67.0 | –
CCCC1=C(C(=O)OCC)C(c2ccsc2)C2=C(CC(c3ccco3)CC2=O)N1 (stereo not drawn) [PT-150, ethyl 7-(furan-2-yl)-5-oxo-2-propyl-4-(thiophen-3-yl)-1,4,5,6,7,8-hexahydroquinoline-3-carboxylate] | 52.9 | 28.2 | 49.3 | –
CC1=C(C(=O)N2CCC(c3ccccc3)CC2)C(c2ccsc2)C2=C(CCCC2=O)N1 (stereo not drawn) [PT-163, 2-methyl-3-(4-phenylpiperidine-1-carbonyl)-4-(thiophen-3-yl)-4,6,7,8-tetrahydroquinolin-5(1H)-one] | – | 15.0 | 53.5 | potentiated late sodium current
CC1=C(C(=O)N2CCN(c3ccccc3)CC2)C(c2ccc3ccccc3c2)C2=C(CCCC2=O)N1 (stereo not drawn) [PT-165, 2-methyl-4-(naphthalen-2-yl)-3-(4-phenylpiperazine-1-carbonyl)-4,6,7,8-tetrahydroquinolin-5(1H)-one] | – | 30.5 | 64.5 | potentiated late sodium current
CC1=C(C(=O)NCc2ccccc2)C(c2ccsc2)C2=C(CCCC2=O)N1 (stereo not drawn) [PT-178, N-benzyl-2-methyl-5-oxo-4-(thiophen-3-yl)-1,4,5,6,7,8-hexahydroquinoline-3-carboxamide] | 0.3 | 11.5 | 30.0 | –
CCOC(=O)C1=C(C(C)C)NC(C(C)C)=C(C(=O)OCC)C1c1ccc(Br)s1 [PT-183, diethyl 4-(5-bromothiophen-2-yl)-2,6-diisopropyl-1,4-dihydropyridine-3,5-dicarboxylate] | 54 | 10.0 | 10.0 | –
CCOC(=O)C1=C(C)NC2=C(C(=O)CCC2)C1c1ccnc2ccccc12 (stereo not drawn) [PT-190, ethyl 2-methyl-5-oxo-1,4,5,6,7,8-hexahydro-4,4′-biquinoline-3-carboxylate] | 4.2 | 10.5 | 32.0 | –
CC1=C(C(=O)OCc2ccccc2)[C@@H](c2ccccc2-c2ccc(Cl)s2)n2nnnc2N1 [PT-237, (R)-benzyl 7-(2-(5-chlorothiophen-2-yl)phenyl)-5-methyl-4,7-dihydrotetrazolo[1,5-a]pyrimidine-6-carboxylate] | 61.5 | 11.5 | 22.5 | –
CC1=C(C(=O)OCc2ccccc2)C(c2ccccc2-c2ccc(C(=O)O)cc2)C2=C(CCCC2=O)N1 (stereo not drawn) [PT-249, 2′-(3-(benzyloxycarbonyl)-2-methyl-5-oxo-1,4,5,6,7,8-hexahydroquinolin-4-yl)biphenyl-4-carboxylic acid] | 20 | 11.5 | 15.5 | –
CC1=C(c2nnc(CCc3ccccc3)o2)C(c2cccc3ccccc23)n2nnnc2N1 (stereo not drawn) [PT-252, 2-(5-methyl-7-(naphthalen-1-yl)-4,7-dihydrotetrazolo[1,5-a]pyrimidin-6-yl)-5-phenethyl-1,3,4-oxadiazole] | 70 | 10.5 | 78.0 | –
CC1=C(C(=O)OCc2ccccc2)C(c2ccccc2-c2ccc(C(=O)O)cc2)n2nnnc2N1 (stereo not drawn) [PT-254, 2′-(6-(benzyloxycarbonyl)-5-methyl-4,7-dihydrotetrazolo[1,5-a]pyrimidin-7-yl)biphenyl-4-carboxylic acid] | 10.7 | 15.0 | 20.0 | –
CC1=C(C(=O)OCc2ccc(Cn3cccn3)cc2)C(c2cccc3ccccc23)n2nnnc2N1 (stereo not drawn) [PT-279, 4-((1H-pyrazol-1-yl)methyl)benzyl 5-methyl-7-(naphthalen-1-yl)-4,7-dihydrotetrazolo[1,5-a]pyrimidine-6-carboxylate] | 61.2 | 12.5 | 45.0 | –
CC1=C(C(=O)OCc2ccc(Cn3cccn3)cc2)C(c2cccs2)n2nnnc2N1 (stereo not drawn) [PT-280, 4-((1H-pyrazol-1-yl)methyl)benzyl 5-methyl-7-(thiophen-2-yl)-4,7-dihydrotetrazolo[1,5-a]pyrimidine-6-carboxylate] | 45.9 | 11.5 | 48.0 | –
COc1cc(Cl)ccc1COC(=O)C1=C(C)NC2=C(C(=O)CCC2)C1c1c(Cl)cccc1Cl (stereo not drawn) [PT-303, 4-chloro-2-methoxybenzyl 4-(2,6-dichlorophenyl)-2-methyl-5-oxo-1,4,5,6,7,8-hexahydroquinoline-3-carboxylate] | 59.9 | 12.0 | 30.5 | –
